From patent US20260284208A1, “SYSTEM” (Oxford University Innovation Limited, priority 2023, published 2026)

What was measured:
wild type IKZF3 = wild type IKZF3 (Homo sapiens, UniProt Q96SW2+Q9UKT9); assay: GFP degradation assay (plate reader), WT; assay type: cell-based; conditions: background autofluorescence subtracted
Procedure: (§1) Jurkat cells were added to 96 well U-bottom assay plates (Falcon) at 1×10^5 cells per well and treated with compounds for 18 hours at 37° C. and 5% CO2. Cells were stained with 1 μg/mL DAPI (ThermoFisher) and acquired on a Cytoflex S (Beckman Coulter). Data was analysed using FlowJo 10.8.1 (BD).
(§2) The compounds were assessed in GFP degradation assays as described above. (Data shown in FIG. 19 was obtained using a plate reader leading to a degree of background autofluorescence). The data in FIG. 19 indicates the inflection point—at which range of concentrations the degradation occurs—for each compound. DC50 and selectivity values (following subtraction of background autofluorescence) were acquired. Compound C01 degrades both wild type IKZF3 and WEIS mutant (Q147W N149E Q150I).

[1] = molecular target: WEIS mutant (Q147W N149E Q150I) (Homo sapiens, UniProt Q96SW2+Q9UKT9, N149E/Q147W/Q150I); assay: GFP degradation assay (plate reader), WEIS; assay type: cell-based; conditions: background autofluorescence subtracted
Procedure: as §1, §2

[2] = tested on: library of 8,380 IKZF3 degrons (ZF-eGFP/mCherry reporter) in Jurkat cells; assay: Pooled library screen (FACS, NGS, limma voom LogFC of positive vs negative read counts); assay type: cell-based, human; conditions: WT ZF sequence
Procedure: A library of 8,380 IKZF3 degrons was cloned into pLVX-Sprout to create the eGFP/mCherry protein degradation reporter plasmid pool. A lentivirus pool was then generated using the Lenti-X lentiviral vector production method.
Jurkat cells were transduced at a multiplicity of infection of <0.3 with the lentivirus vector library in order to maximise the number of cells with a single integration. Transductions were carried out in 6 well TC-treated cell culture dishes (Falcon) with 3×10^6 cells per well. Cells were incubated for 2 days at 37° C. and 5% CO2 before the supernatant was removed and replaced with fresh media. 6 days post-transduction, mCherry+ cells were isolated via FACS using the FACS Aria Fusion (BD) in a buffer containing PBS (Gibco), 2 mM EDTA (Gibco), 25 mM HEPES (Sigma) and 1% BSA (Sigma). 8 days later, cells were treated with DMSO or a thalidomide analog for 18 hours at 37° C. and 5% CO2. mCherry+GFPlow and NOT(mCherry+GFPlow) cells were sorted by FACS using the FACS Aria Fusion (BD). DMSO treated cells were used to set the mCherry+GFPlow gate and dead cells were excluded from sorting by staining cells with 1 μg/mL DAPI (ThermoFisher). gDNA was isolated using the Maxwell RSC 48 (Promega). gDNA from cells that were unsorted and untreated were also isolated to determine the library representation on the day of compound treatment. Throughout the screen >600× coverage of the library was maintained. 3 biological replicates were carried out with a new transduction taking place each time.
A two-step PCR was used where the first PCR (PCR1) amplified the integrated degron sequence from gDNA and the second PCR (PCR2) added Illumina adaptors and barcodes to permit multiplexing. See Supp F for PCR1 and PCR2 primers. Q5 Hot Start High-Fidelity 2× Master Mix (New England Biolabs) was used for both PCRs. Sufficient gDNA was amplified in PCR1 in order to maintain >600× coverage and amplicons were purified using solid phase reversible immobilization (SPRI) beads (Beckman Coulter). Purified PCR1 products were analysed on the Tapestation 4200 (Agilent) to confirm purity prior to proceeding to PCR2. Sufficient PCR1 product was amplified in PCR2 in order to maintain >600× coverage and amplicons were run on a 2% agarose TAE gel. Target bands were excised and purified using the NucleoSpin Gel and PCR Clean-up Kit (Machery Nagel). Amplicons were analysed on the Tapestation 4200 and quantified using Qubit dsDNA HS kit (ThermoFisher). PCR products were pooled and sequenced as paired-reads on the NovaSeq (Illumina) using a SP2 200 cycles kit (Illumina).
Count distributions, percentage of read mapping, library coverage and replicate correlation per sample were assessed for QC purposes.
To carry out the library screen, we used the same plasmid construct as in our earlier flow cytometry assays, but pooling all 8,380 mutants together into one Jurkat population, ensuring a copy number of one plasmid per cell (FIG. 4B). […] These GFP-negative cells were then separated from the remaining GFP-positive population using fluorescence activated cell sorting (FACS). These two populations were then sequenced and the relative abundance of every mutant in both populations compared to provide a log FC value for each mutant sequence. This value indicated how frequently a sequence is observed in the GFP-negative population relative to the GFP-positive population, and therefore how effective a degron it is for that particular IMID compound.

Chain of wild type IKZF3 (Q9UKT9 130-189): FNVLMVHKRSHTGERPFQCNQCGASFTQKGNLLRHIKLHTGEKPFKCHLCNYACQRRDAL
Chain of wild type IKZF3 (Q96SW2 whole entry): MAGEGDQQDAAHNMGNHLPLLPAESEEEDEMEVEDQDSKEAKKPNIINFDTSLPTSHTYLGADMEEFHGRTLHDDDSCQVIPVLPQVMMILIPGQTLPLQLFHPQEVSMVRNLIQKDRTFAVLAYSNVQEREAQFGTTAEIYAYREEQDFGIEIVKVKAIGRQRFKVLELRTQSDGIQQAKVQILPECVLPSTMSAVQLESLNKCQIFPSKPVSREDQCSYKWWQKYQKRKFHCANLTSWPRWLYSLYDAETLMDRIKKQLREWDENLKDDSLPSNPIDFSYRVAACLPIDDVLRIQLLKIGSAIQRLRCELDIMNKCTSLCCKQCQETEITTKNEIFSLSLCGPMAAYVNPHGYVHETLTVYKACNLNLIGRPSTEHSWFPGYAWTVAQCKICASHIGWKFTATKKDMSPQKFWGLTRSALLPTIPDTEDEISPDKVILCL
Chain of WEIS mutant (Q147W N149E Q150I) (Q9UKT9 130-189 Q147W/N149E/Q150I): as the sequence (Q9UKT9 130-189) above, with Q18W, N20E, Q21I counted along it
Chain of WEIS mutant (Q147W N149E Q150I) (Q96SW2 whole entry): as the sequence (Q96SW2 whole entry) above

degradation of wild type IKZF3 (wild type IKZF3)	degradation of WEIS mutant [1]	Structure (SMILES)	position of the WT sequence in the volcano plot of the library screen [2]
degrades	degrades	CN1CCN(c2ccc3c(c2)CN(C2CCC(=O)NC2=O)C3=O)CC1 (stereo not drawn) [C01]	
		O=C1CCC(N2C(=O)c3ccccc3C2=O)C(=O)N1 (stereo not drawn) [thalidomide, reference compound]	close to the ‘hits’ region
